According to EP0719267B1, “SECOND MESSENGER CELL SIGNALING INHIBITORS” (CELL THERAPEUTICS, INC., priority 1993, dated 1994):
pIC50: −log10 of the molar value.

Assays:
[1] = test system: murine splenocyte proliferation; assay: Splenocyte (B cell) proliferation stimulated by anti-mu/anti-IgM and IL-4; assay type: cell-based; details: Mus musculus, anti-mu and IL-4 12.5 ng/ml
Method: This example illustrates inhibitive effects of compounds nos. 27 and 28 on murine splenocyte proliferation stimulated by anti-mu ([…]) and interleukin-4 (IL-4, 12.5 ng/ml). This in vitro assay, described above, is indicative of immune-suppressive/autoimmune treatment assay emphasizing humoral or B cell immune response. The inventive compound was added to the cells at the doses indicated two hours prior to activation with anti-mu and IL-4. Both compounds nos. 27 and 28 inhibited splenocyte proliferation in a dose-response manner. IC50 values for compounds nos. Background counts were less than 200 cpm.
In figure 57, results shown illustrate that inventive compound no. 45 inhibits B cell proliferation. Murine splenocytes were stimulated with anti-IgM antibodies (10 µg/ml) and murine IL-4 (12.5 ng/ml). Cells were pulsed with ^3HTdR at 44 hours, harvested 4 hours later, and the incorporation of ^3H-TdR was determined by liquid scintillation.

[2] = test system: mixed lymphocyte reaction assay culture; assay: Cell percent viability in mixed lymphocyte reaction culture; assay type: cell-based; details: 100 µM, six days of cell culture
Method: Cell percent viability in mixed lymphocyte reaction assay culture was determined after six days of cell culture. […] Control cells unexposed to drugs are generally 78 to 85% viable under these culture conditions. In this assay, all inventive compounds were present at 100 µM concentrations, generally well above corresponding IC50 values in this assay (see fig. 2D). […] Compounds nos.

[3] = test system: transformed cells (Ras 3T3) and normal 3T3 cells; assay: Cytotoxicity for transformed versus non-transformed cells; assay type: cell-based; details: 1, 10 and 100 µM
Method: This example compares cytotoxicity results for inventive compound no. 27 for transformed cells and non-transformed cells. In transformed cells (Ras 3T3) and in normal 3T3 cells, cytotoxicity of compound no. 27 at concentrations of 1, 10 and 100 µM was determined. Figure 18 reports results obtained in this assay. At each of the above concentrations, compound no.

[4] = test system: murine lymph node cell proliferation; assay: Lymph node cell proliferation stimulated by antigen; assay type: cell-based; details: Mus musculus
Excerpt: This example illustrates activity of representative inventive compounds nos. 27, 49, 50, 45, 43 or 41 (above) in assays detecting activity in response to cell stimulus. One assay, murine lymph node cell proliferation (stimulated by anitgen) was used to determine inhibitive activity of compound no. 27 on proliferation of the lymph node cells. This in vitro assay is an immune suppressive/autoimmune treatment predictive assay emphasizing cellular or T cell immune response. The assay used murine T cells that proliferate in vitro in response to a soluble protein antigen, used to prime the T cells in vivo. Compound was added to the cells at doses indicated in figures 7 and 8 (showing assay results) two hours prior to activation with […]. Compound no. 27 inhibited T cell proliferation in a dose-response manner. IC50 values for compound no.

[5] = test system: proliferative PMBC response to allogeneic stimulation; assay: Two-way mixed lymphocyte reaction; assay type: cell-based
Excerpt: This example illustrates therapeutic potential for various autoimmune and inflammatory diseases of the inventive compounds by comparing potency (inhibitive activity) with cytotoxicity data obtained using the following indicative assay procedures. In a mixed lymphocyte reaction assay of compounds nos. […] Compounds nos. […] 2A and 2B. Both compounds nos. […] 2C.
Compound no. […] Compound no.

[6] = test system: murine thymocyte proliferation; assay: Thymocyte proliferation stimulated by Con A and IL-1α; assay type: cell-based; details: Mus musculus, 2 h, added two hours prior to Con A and IL-1α
Method: In a first part of this example, compounds nos. 30, 33, 28 and 27 (see above for chemical names and structures) show effective inhibition of murine thymocyte proliferation stimulated by Con A and interleukin 1 alpha (IL-1α). Compounds nos. 30, 33, 28 and 27 were added to cell cultures two hours prior to activation with Con A and IL-1α in a thymocyte co-stimulation procedure akin to that discussed in example 21. […] IC50 values determined for each inventive compound tested are as follow: compound no. […] Background counts in the assay were less than 200 cpm.

[7] = test system: murine thymocyte proliferation; assay: Thymocyte proliferation co-stimulated by ConA and IL-2 (tritiated thymidine); assay type: cell-based, Balb/C mice; details: ConA and IL-2 co-stimulation
Method: (§1) ConA, used to activate CD3, induces T-cell proliferation and differentiation. Thymuses, obtained from normal, female Balb/C mice, were dissociated and plated into 96-well plates at a density of 2 x 10^5 cells/well. ConA (0.25 mg/ml) and IL-2 (15 U/ml) were added to the wells. The cells were incubated for 4 days at 37°C. On day 4, the cells were pulsed with tritiated thymidine and incubated for an additional 4 hours. The amount of tritiated thymidine dye incorporated by the harvested cells was determined in a liquid scintillation counter. Drug doses (shown in figs. 1A and 1B) were added two hours prior to ConA and IL-2 activation.
as §1, with “Thymuses,” for “ConA, used to activate CD3, induces T-cell proliferation and differentiation. Thymuses,”, “37 °C.” for “37°C.”, “Doses” for “Drug doses”, “26A, 26B” for “1A”, “26C)” for “1B)”
In another in vitro protocol, thymocyte proliferation was induced by sub-mitogenic doses of Con A (0.25 µg/ml) and IL-2 (20 ng/ml). Cells were stimulated for 96 hours, prior to addition of ^3H-TdR for 4 hours. The cells were harvested and incorporation of ^3H-TdR was determined.
45 on co-stimulated thymocyte proliferation. In an assay procedure, murine thymocytes were stimulated with ConA and IL-2 with 1 µM compound no. 45 added either 1 hour prior to IL-2 (-1), simultaneous with IL-2 (0) or at various times following IL-2 addition (1-92 hour). At 92 hours the thymocytes were pulsed with ^3H-TdR, harvested and counted by scintillation 4 hours later.

mast cell degranulation = assay: Serotonin release assay for inhibition of mast cell degranulation; assay type: cell-based; details: Mast cell; Concentration 50 µM
Excerpt: This assay provides an in vitro model for an allergy and asthma therapeutic product. […]

`Cn1cnc2c1c(=O)n(CCCCCCCC(O)CNCc1ccccc1)c(=O)n2C` (stereo not shown) [compound no. 27, 1-(8-hydroxy-9-(N-benzyl)aminononyl)-3,7-dimethylxanthine] was tested, and the pIC50 [1] was 5.48, the “cytotoxicity (percent viability)” value [2] was “little or no cytotoxicity” and the differential cytotoxicity [3] was “more cytotoxic for the cancer cells than normal cells”. For the same compound, the pIC50 ([4]; first experiment (fig. 7)) was 4.64, the pIC50 ([4]; second experiment (fig. 8)) was 4.72 and the pIC50 ([5]; Lymphocyte, figs. 2A-2C) was 4.40. For the same compound, the immune suppression activity ([5]; fig. 2D) was “did not exhibit significant suppressive activity”, the pIC50 [6] was > 4.90 and the “inhibition of thymocyte proliferation” value [7] was “the most potent immune-suppressive effects”. The inhibition at 50 µM (mast cell degranulation) was 29%.
